Tests used:
Caco-2 and HT-29 cells = assay: Cytotoxicity, XTT viability assay, stated for both cell lines; format: cell-based, human; conditions: 125 µM, 48 h
Description: The suspension was added to a 96-well plate. […] Cell viability was determined using the following steps.

[1] = tested on: G6PD::6PGL enzyme of G. lamblia; conditions: cited from earlier work
[2] = tested on: Giardia lamblia trophozoites (strain ATCC 30957) gene expression; assay: Gene expression in trophozoites by RT-qPCR; format: cell-based; conditions: IC50 of each compound, 48 h
Description: To determine the alterations in the parasite’s metabolism and cellular processes induced by the compounds, the expression levels of various genes encoding metabolic, structural, and oxidative stress response proteins were evaluated. G. lamblia strain ATCC 30957 was grown by following previously established culture parameters.
The culture tube was incubated on ice for 15 min and then centrifuged at 2000 rpm for 6 min to concentrate the cell pellet. Cell counting was performed using the trypan blue method. A 500 µL volume of Trizol ® was added, and it was gently homogenized; then, 60 µL of chloroform was added, and it was homogenized for 10 s with a vortex and incubated on ice for 3 min. Afterward, it was centrifuged at 12,000 rpm for 10 min, the aqueous phase was transferred to a new tube, 200 µL of isopropanol was added, and it was incubated for 3 h on ice. The sample was then centrifuged for 10 min at 12,000 rpm, and the supernatant was discarded. A 600 µL volume of ethanol (70%) was added, homogenized, and centrifuged. In the end, the supernatant was removed, and the sample was centrifuged again to dry the excess alcohol. The pellet was dried. Finally, it was resuspended in 25 µL of sterile MilliQ water. The concentration and purity of the extracted RNA were determined using the NanoDrop® Spectrophotometer ND-1000 (NanoDrop Technologies, Wilmington, DE, USA). […] RNA purity and integrity were confirmed using 0.8% (w/v) agarose gels under denaturing conditions.
The synthesis of cDNA was carried out with […] of purified RNA, and 1 U of […] was added (Thermo Thermo Fisher Scientific, Waltham, MA, USA). First-strand cDNA synthesis was carried out using 1 μg of DNase-treated RNA, combined with a 10 mM dNTP mix, oligo(dT)18 primer, and RevertAid reverse transcriptase (Thermo Scientific) in a final reaction volume of 20 μL. The reaction mixture was incubated at 42 °C for 60 min, followed by heat inactivation at 70 °C for 10 min. The synthesized cDNA was stored at −20 °C until further use. The level of purity and concentration of the cDNA were determined using the NanoDrop® Spectrophotometer ND-1000 (NanoDrop Technologies, Wilmington, DE, USA).
Specific oligonucleotides were designed to determine the expression levels of the gene’s phosphofructokinase, pyruvate kinase, glucose-6-phosphate dehydrogenase::6-phosphogluconolactonase, 6-phosphogluconate dehydrogenase, and transketolase. The design was based on gene sequences available in the National Center for Biotechnology Information (NCBI) database, adhering to the following criteria: an oligonucleotide length of 18–20 bp, a melting temperature (Tm) of 61 °C, a GC content of approximately 40%, and an amplicon size between 80 and 200 bp (Table 4). The oligonucleotides were synthesized by the Sequencing and Synthesis Unit of the Institute of Biotechnology, UNAM.
Additionally, previously reported primers that were used for the gene expression analysis of G. lamblia were also obtained (Table 4). These primers target genes encoding surface structural protein, giardin, actin, pyruvate:ferredoxin oxidoreductase, pyruvate phosphate dikinase, NADH oxidase, triose phosphate isomerase, glyceraldehyde-3-phosphate dehydrogenase, and Aldolase.
Amplification was performed using a StepOne™ Real-Time PCR System and the Fast SYBR® Green Master Mix kit (Applied Biosystems, Foster City, CA, USA) under the following conditions: an initial denaturation at 95 °C for 30 s, followed by 40 cycles of 95 °C for 3 s and 60 °C for 30 s. The melt curve analysis was conducted post-amplification by gradually increasing the temperature from 60 °C to 95 °C. […] Normalization was performed using the geometric mean of cycle threshold (Ct) values, and the relative expression levels of the target genes were calculated using the 2^−ΔΔCt method. Each reaction was performed in five replicates for all analyzed genes and strains. Results are presented as mean values ± standard deviation (SD).

[3] = tested on: G. lamblia strain resistant to nitazoxanide; assay: Giardicidal activity in nitazoxanide-resistant strain (trypan blue count); format: cell-based; conditions: Giardia duodenalis, 48 h, read-out: IC50 G. lamblia (NTZ Resistant)
Description: A pre-culture at confluence was used as a starting point, and a concentration–response curve was plotted using an initial compound concentration of 25 μM in a final volume of 1.5 mL of TYI-S-33 medium, followed by serial dilutions of the compound. Each treatment was inoculated with 1.5 × 10^5 trophozoites and incubated for 48 h at 37 °C. At the end of the incubation, the number of trophozoites was determined using the trypan blue assay and by counting in a Neubauer chamber. The viability percentage at each compound concentration was calculated using the negative control as a reference.

[4] = tested on: G. lamblia strain ATCC 30957; assay: Viability of Giardia lamblia trophozoite culture (trypan blue count); format: cell-based
Description: Viability analysis was performed on G. lamblia strain ATCC 30957 grown in TYI-S-33 medium supplemented with 10% fetal bovine serum (FBS) and an antibiotic. Pre-culture was performed in 16 × 150 mm borosilicate tubes with a medium inoculated with 2 × 10^5 trophozoites and incubated at 37 °C for 48 h. For the recovery of the trophozoites, the vial was incubated in ice for 8 min and centrifuged for 6 min at 2000 rpm. The concentrated trophozoites were suspended in 1 mL of phosphate-buffered saline (PBS), and the number of trophozoites was counted by placing a 1:1 volume ratio of cell culture and trypan blue dye (4 g/L); then, a homogeneous drop of the mixture was taken and placed in the Neubauer chamber, and the total cells were counted.
The curves were plotted for concentrations of 0–50 µM of each compound. The assay was performed by placing 1.5 × 10^5 cells in 1.5 mL microcentrifuge tubes with a supplemented medium and different concentrations of each compound (0–50 µM). The negative control was performed under the same conditions without a compound, and the drugs NTZ and MTZ were used as positive controls. The samples were incubated for 48 h at 37 °C. At the end of the incubation, the cell viability count was performed using the trypan blue technique. The viability calculation was performed following the formula nv/(nv + nm), where nv represents the live cells and nm represents the dead cells; the viability value obtained was expressed as a percentage. The IC50 value of each compound was determined using the IC50 Calculator software (https://www.aatbio.com/tools/ic50-calculator).

CCCCC(=O)Nc1ncc([N+](=O)[O-])s1 [FLP-2, N-(5-Nitro-1,3-thiazol-2-yl)pentanamide]
Decrease of cell viability (Caco-2 and HT-29 cells): up to 20% | Inhibition of the G6PD::6PGL enzyme (in words) [1]: inhibitors of the G6PD enzyme | 6PGDH gene expression vs control [2]: differential overexpression | ACT (actin) gene expression, decrease vs control [2]: 10 times | G6PD::6PGL gene expression vs control [2]: 117.4 fold change | GAPDH gene expression vs control [2]: 18.3 fold change | GIA (giardin) gene expression, increase vs control [2]: 20.1 times | NADHox gene expression, increase vs control [2]: lower | PFK gene expression vs control [2]: reduction | PFOR gene expression vs control [2]: 16 fold change | PPDK gene expression vs control [2]: 21.8 fold change | TKT gene expression, increase vs control [2]: 45.1 times | VSP gene expression, increase vs control [2]: 47.8 times | IC50 [3]: 370 nM | Inhibition of growth of G. lamblia parasite culture ([4]; concentration not given): more than 98% | Relative potency compared with NTZ ([4]; ratio of IC50 values, ATCC strain): 1.2 times
